Patent US12655116B2, “Substituted isophthalic acid diamides” (Bayer Aktiengesellschaft, priority 2020, dated 2026)

Experiments:
ABUTH [1] = test: Pre-emergence herbicidal action against ABUTH; type: in vivo, Abutilon theophrasti; settings: Abutilon theophrasti, 504 h; for pest or weed control at 80 g/ha: scored visually after 3 weeks vs untreated controls (100% = plants have died, 0% = like control plants)
Method in brief: (§1)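 Greenhouse pots of sandy loam held seeds covered with soil, onto which the compound was applied before emergence. An aqueous suspension or emulsion of WP or EC was used at 600 to 800 l/ha with 0.2% wetting agent. Percent damage was judged visually at 3 weeks.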

ALOMY [2] = test: Pre-emergence herbicidal action against ALOMY; type: in vivo, Alopecurus myosuroides; settings: Alopecurus myosuroides, 504 h; 80 g/ha, pre-emergence, scored visually after 3 weeks vs untreated controls (100% = plants have died, 0% = like control plants)
Method in brief: as §1

AMARE [3] = test: Pre-emergence herbicidal action against AMARE; type: in vivo, Amaranthus retroflexus; settings: Amaranthus retroflexus, 504 h, scored visually after 3 weeks vs untreated controls, 100% = plants have died, 0% = like control plants
Method in brief: as §1

AVEFA = test: Pre-emergence herbicidal action against AVEFA; type: in vivo, Avena fatua; settings: Avena fatua, 504 h, pre-emergence
Method in brief: as §1

ECHCG [4] = test: Pre-emergence herbicidal action against ECHCG; type: in vivo, Echinochloa crus-galli; settings: Echinochloa crus-galli, 504 h
Method in brief: as §1

LOLRI = test: Pre-emergence herbicidal action against LOLRI; type: in vivo, Lolium rigidum; settings: Lolium rigidum, 504 h, 80 g/ha
Method in brief: as §1

MATIN [5] = test: Pre-emergence herbicidal action against MATIN; type: in vivo, Matricaria inodora; settings: Tripleurospermum inodorum, 504 h; for pest or weed control at 20 g/ha: dosage 20 g/ha; for pest or weed control at 80 g/ha: dosage 80 g/ha
Method in brief: as §1

PHBPU [6] = test: Pre-emergence herbicidal action against PHBPU; type: in vivo, Pharbitis purpurea; settings: Ipomoea purpurea, 504 h; for pest or weed control at 80 g/ha: dosage 80 g/ha
Method in brief: as §1

POLCO = test: Pre-emergence herbicidal action against POLCO; type: in vivo, Polygonum convolvulus; settings: Fallopia convolvulus, 504 h, dosage 80 g/ha
Method in brief: as §1

SETVI [7] = test: Pre-emergence herbicidal action against SETVI; type: in vivo, Setaria viridis; settings: Setaria viridis, 504 h; for pest or weed control at 20 g/ha: dosage 20 g/ha; for pest or weed control at 80 g/ha: dosage 80 g/ha
Method in brief: as §1

VERPE = test: Pre-emergence herbicidal action against VERPE; type: in vivo, Veronica persica; settings: Veronica persica, 504 h, dosage 80 g/ha
Method in brief: as §1

VIOTR [8] = test: Pre-emergence herbicidal action against VIOTR; type: in vivo, Viola tricolor; settings: Viola tricolor, 504 h; for pest or weed control at 20 g/ha: dosage 20 g/ha; for pest or weed control at 80 g/ha: dosage 80 g/ha
Method in brief: as §1

DIGSA [9] = test: Pre-emergence herbicidal action against DIGSA; type: in vivo, Digitaria sanguinalis; settings: Digitaria sanguinalis, 504 h; for pest or weed control at 20 g/ha: dosage 20 g/ha; for pest or weed control at 80 g/ha: dosage 80 g/ha
Method in brief: as §1

ABUTH [10] = test: Post-emergence herbicidal action against ABUTH; type: in vivo, Abutilon theophrasti; settings: Abutilon theophrasti, 504 h, visual assessment about 3 weeks after treatment vs untreated controls; for pest or weed control at 20 g/ha: dosage 20 g/ha
Method in brief: (§2)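 Foliar application at one-leaf stage of formulated test compounds, aqueous spray at 600–800 l/ha with 0.2% wetting agent. Greenhouse, optimal conditions, ~3 weeks; damage scored visually in % relative to untreated plants.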

ALOMY [11] = test: Post-emergence herbicidal action against ALOMY; type: in vivo, Alopecurus myosuroides; settings: Alopecurus myosuroides, 504 h, dosage 20 g/ha, visual assessment about 3 weeks after treatment vs untreated controls
Method in brief: as §2

AMARE [12] = test: Post-emergence herbicidal action against AMARE; type: in vivo, Amaranthus retroflexus; settings: Amaranthus retroflexus, 504 h, 20 g/ha, visual assessment about 3 weeks after treatment, 100% = plants have died, 0% = like control plants
Method in brief: as §2

ECHCG [13] = test: Post-emergence herbicidal action against ECHCG; type: in vivo, Echinochloa crus-galli; settings: Echinochloa crus-galli, 504 h; for pest or weed control at 20 g/ha: dosage 20 g/ha
Method in brief: as §2

MATIN [14] = test: Post-emergence herbicidal action against MATIN; type: in vivo, Matricaria inodora; settings: Tripleurospermum inodorum, 504 h; for pest or weed control at 20 g/ha: dosage 20 g/ha
Method in brief: as §2

SETVI [15] = test: Post-emergence herbicidal action against SETVI; type: in vivo, Setaria viridis; settings: Setaria viridis, 504 h; for pest or weed control at 5 g/ha: dosage 5 g/ha; for pest or weed control at 20 g/ha: dosage 20 g/ha
Method in brief: as §2

VIOTR [16] = test: Post-emergence herbicidal action against VIOTR; type: in vivo, Viola tricolor; settings: Viola tricolor, 504 h
Method in brief: as §2

DIGSA [17] = test: Post-emergence herbicidal action against DIGSA; type: in vivo, Digitaria sanguinalis; settings: Digitaria sanguinalis, 504 h
Method in brief: as §2

PHBPU [18] = test: Post-emergence herbicidal action against PHBPU; type: in vivo, Pharbitis purpurea; settings: Ipomoea purpurea, 504 h, dosage 20 g/ha
Method in brief: as §2

Structure (SMILES)	pest or weed control at 80 g/ha (ABUTH [1]) [%]	pest or weed control at 80 g/ha (ALOMY [2]) [%]	pest or weed control at 20 g/ha (AMARE [3]) [%]	pest or weed control at 80 g/ha (AMARE [3]) [%]	pest or weed control at 80 g/ha (AVEFA) [%]	pest or weed control at 80 g/ha (ECHCG [4]) [%]	pest or weed control at 80 g/ha (LOLRI) [%]	pest or weed control at 20 g/ha (MATIN [5]) [%]	pest or weed control at 80 g/ha (MATIN [5]) [%]	pest or weed control at 80 g/ha (PHBPU [6]) [%]	pest or weed control at 80 g/ha (POLCO) [%]	pest or weed control at 20 g/ha (SETVI [7]) [%]	pest or weed control at 80 g/ha (SETVI [7]) [%]	pest or weed control at 80 g/ha (VERPE) [%]	pest or weed control at 20 g/ha (VIOTR [8]) [%]	pest or weed control at 80 g/ha (VIOTR [8]) [%]	pest or weed control at 20 g/ha (DIGSA [9]) [%]	pest or weed control at 80 g/ha (DIGSA [9]) [%]	pest or weed control at 20 g/ha (ABUTH [10]) [%]	pest or weed control at 20 g/ha (ALOMY [11]) [%]	further results
CCn1nnnc1NC(=O)c1ccc(I)c(C(=O)NC2CC2)c1Cl [Example 2-197]	100	90	100	100	100	100	90	80	100	90	100	90	100	90	100	100	100	100	80	90	pest or weed control at 20 g/ha (AVEFA; 20 g/ha, scored visually after 3 weeks, 100% = plants have died, 0% = like control plants): 80%; pest or weed control at 20 g/ha (PHBPU [6]; dosage 20 g/ha): 80%; pest or weed control at 20 g/ha (AMARE [12]): 90%; pest or weed control at 20 g/ha (ECHCG [13]): 90%; pest or weed control at 20 g/ha (MATIN [14]): 80%; pest or weed control at 5 g/ha (SETVI [15]): 80%; pest or weed control at 20 g/ha (SETVI [15]): 100%; pest or weed control at 5 g/ha (VIOTR [16]): 80%; pest or weed control at 20 g/ha (VIOTR [16]): 100%; pest or weed control at 20 g/ha (DIGSA [17]): 90%
Cn1nnnc1NC(=O)c1ccc(C(F)(F)F)c(C(=O)NC2CC2)c1C1CC1 [Example 1-288]	100	90	100	100	90	100	80	100	100	100	80	100	100	100	100	100	100	100	80	90	pest or weed control at 20 g/ha (ABUTH [1]; dosage 20 g/ha, scored visually after 3 weeks vs untreated controls, 100% = plants have died, 0% = like control plants, read-out: Pre-emergence action against ABUTH (herbicidal activity in percent)): 100%; pest or weed control at 20 g/ha (ECHCG [4]; 20 g/ha): 80%; pest or weed control at 5 g/ha (ABUTH [10]; dosage 5 g/ha): 80%; pest or weed control at 20 g/ha (AMARE [12]): 100%; pest or weed control at 5 g/ha (ECHCG [13]; dosage 5 g/ha): 80%; pest or weed control at 20 g/ha (ECHCG [13]): 80%; pest or weed control at 5 g/ha (MATIN [14]; dosage 5 g/ha): 90%; pest or weed control at 20 g/ha (MATIN [14]): 100%; pest or weed control at 20 g/ha (PHBPU [18]): 80%; pest or weed control at 5 g/ha (SETVI [15]): 80%; pest or weed control at 20 g/ha (SETVI [15]): 100%; pest or weed control at 5 g/ha (VIOTR [16]): 90%; pest or weed control at 20 g/ha (VIOTR [16]): 90%; pest or weed control at 5 g/ha (DIGSA [17]; 5 g/ha): 90%; pest or weed control at 20 g/ha (DIGSA [17]): 100%
